From article PMC9854762, “Antibiofilm and Anti-Quorum-Sensing Activities of Novel Pyrazole and Pyrazolo[1,5-a]pyrimidine Derivatives as Carbonic Anhydrase I and II Inhibitors: Design, Synthesis, Radiosterilization, and Molecular Docking Studies” (Antibiotics, 2023)
Converted amounts (≈) assume the structure as drawn. Where two headings read alike, the source gives them in different places.

Tests used:
S. pyogenes DH-3467 [1] = assay: Broth microdilution MIC/MBC; format: cell-based, Streptococcus pyogenes; details: for MIC: Streptococcus pyogenes, DH3467, 24 h, read-out: MIC (Mean ± SEM); for MBC/MIC: value in brackets
Method: (§1) The broth microdilution method was taken as a basis to detect the MICs of pyrazole compounds against tested clinical isolates, according to the Clinical Laboratory and Standards Institute guidelines. The broth cultures were used to prepare the bacterial inoculums, and the suspensions were adjusted to the standard 0.5 McFarland turbidity. Stock solutions of the synthesized pyrazoles were prepared in pure DMSO and further serially diluted with TS broth in the concentration range from 128 µg/mL to 0.0625 µg/mL. A well containing noninoculated TS broth, free of any antimicrobial agents, was also included to ensure the medium sterility, while Erythromycin and Amikacin served as positive controls. Bacterial growth was determined by adding 20 µL of 0.5% TTC (2,3,5-triphenyltetrazolium chloride) aqueous solution. […] All experiments were repeated three times. The bactericidal effect from each concentration of the pyrazole and pyrazolo[1,5-a]pyrimidine derivatives showing growth inhibition was further studied. For this study, a loopful of 5 µL was taken from each no-visible growth tube and streaked onto plates of TS agar.

S. aureus DH-432 [2] = assay: Broth microdilution MIC/MBC; format: cell-based, Staphylococcus aureus; details: for MIC: Staphylococcus aureus, DH432, 24 h, read-out: MIC (Mean ± SEM); for MBC/MIC: value in brackets
Method: as §1

P. aeruginosa DH-5698 [3] = assay: Broth microdilution MIC/MBC; format: cell-based, Pseudomonus aeruginosa; details: for MIC: Pseudomonas aeruginosa, DH5698, 24 h, read-out: MIC (Mean ± SEM); for MBC/MIC: value in brackets
Method: as §1

E. faecalis DH-5478 [4] = assay: Broth microdilution MIC/MBC; format: cell-based, Enterococcus faecalis; details: for MIC: Enterococcus faecalis, DH5478, 24 h, read-out: MIC (Mean ± SEM); for MBC/MIC: value in brackets
Method: as §1

P. aeruginosa DH-5698 [5] = assay: Agar well-diffusion assay; format: cell-based, Pseudomonus aeruginosa; details: Pseudomonas aeruginosa, DH5698; P. aeruginosa DH-5698; 50 µL of 10 mM per well; read-out: Diameter of Inhibition Zones (AZOI)
Method: (§2) The synthesized compounds were initially screened for their in vitro antibacterial activity against the different Gram-positive and Gram-negative bacteria, tested using the agar well-diffusion assay. The turbidity of the bacterial suspensions was established to the 0.5 McFarland turbidity standard. The activity was performed on TS agar plates. The bacteria were spread on the surface of the agar plates, and 10 mm wells were screwed into the agar plates. The assay was performed under aseptic conditions. An aliquot of 50 µL of each tested compound (10 mM) was added to the wells, and the plates were incubated overnight at 37 °C. Both Erythromycin and Amikacin antibiotic disks were used as positive control, while DMSO solvent was used as a negative control in this study. The diameters of inhibition zones were measured and recorded in mm. A comparative study of the synthesized compounds was determined. The experiment was performed in triplicates.

A. baumannii DH-243 [6] = assay: Broth microdilution MIC/MBC; format: cell-based, Acinetobacter baumannii; details: for MIC: Acinetobacter baumannii, DH243, 24 h, read-out: MIC (Mean ± SEM); for MBC/MIC: value in brackets
Method: as §1

S. pyogenes DH-3467 [7] = assay: Agar well-diffusion assay; format: cell-based; details: Streptococcus pyogenes
Method: as §2

A. baumannii DH-243 [8] = assay: Agar well-diffusion assay; format: cell-based; details: Acinetobacter baumannii, DH243; A. baumannii DH-243; 50 µL of 10 mM per well; read-out: Diameter of Inhibition Zones (AZOI)
Method: as §2

S. aureus DH-432 [9] = assay: Agar well-diffusion assay; format: cell-based; details: Staphylococcus aureus
Method: as §2

E. coli DH-5987 [10] = assay: Agar well-diffusion assay; format: cell-based; details: Escherichia coli, DH5987, 50 µL of 10 mM per well, read-out: Diameter of Inhibition Zones (AZOI)
Method: as §2

E. faecalis DH-5478 [11] = assay: Agar well-diffusion assay; format: cell-based; details: Enterococcus faecalis
Method: as §2

E. coli DH-5987 [12] = assay: Broth microdilution MIC/MBC; format: cell-based, Escherichia coli; details: E. coli DH-5987; for MBC/MIC: value in brackets; for MIC: Escherichia coli, DH5987, 24 h, read-out: MIC (Mean ± SEM)
Method: as §1

Gram-positive isolates = assay: Broth microdilution MIC/MBC, summary; format: cell-based; details: Gram-positive isolates (E. faecalis, S. aureus, S. pyogenes)
Method: as §1

[13] = DH3467, S. pyogenes DH-3467, 50 µL of 10 mM per well, read-out: Diameter of Inhibition Zones (AZOI)
[14] = DH432, S. aureus DH-432, 50 µL of 10 mM per well, read-out: Diameter of Inhibition Zones (AZOI)
[15] = DH5478, E. faecalis DH-5478, 50 µL of 10 mM per well, read-out: Diameter of Inhibition Zones (AZOI)

Row | Compound | MIC (S. pyogenes DH-3467 [1]) [µg/mL] | MBC/MIC (S. pyogenes DH-3467 [1]) | MIC (S. aureus DH-432 [2]) [µg/mL] | MBC/MIC (S. aureus DH-432 [2]) | melting point [°C] | MIC (P. aeruginosa DH-5698 [3]) [µg/mL] | MBC/MIC (P. aeruginosa DH-5698 [3]) | MIC (E. faecalis DH-5478 [4]) [µg/mL] | MBC/MIC (E. faecalis DH-5478 [4]) | zone of inhibition at 10000 µM (P. aeruginosa DH-5698 [5]) [mm] | MIC (A. baumannii DH-243 [6]) [µg/mL] | MBC/MIC (A. baumannii DH-243 [6]) | zone of inhibition at 10000 µM (S. pyogenes DH-3467 [7]; [13]) [mm] | zone of inhibition at 10000 µM (A. baumannii DH-243 [8]) [mm] | zone of inhibition at 10000 µM (S. aureus DH-432 [9]; [14]) [mm] | zone of inhibition at 10000 µM (E. coli DH-5987 [10]) [mm] | zone of inhibition at 10000 µM (E. faecalis DH-5478 [11]; [15]) [mm] | MBC/MIC (E. coli DH-5987 [12]) | MIC (E. coli DH-5987 [12]) [µg/mL] | other results
1 | CCOC(=O)c1ccc(N=Nc2c(N)nn3c(-c4cccs4)cc(-c4ccccc4)nc23)cc1 [Compound 8a, Ethyl-4-((2-amino-5-phenyl-7-(thiophen-2-yl)pyrazolo[1,5-a]pyrimidin-3-yl)diazenyl)benzoate] | 4 ± 0.4 (≈ 8.54 µM) | 1 | 2 ± 0.2 (≈ 4.27 µM) | 1 | 200 to 202 | 2 ± 0.3 (≈ 4.27 µM) | 1 | 4 ± 0.3 (≈ 8.54 µM) | 1 | 21.6 | 4 ± 0.2 (≈ 8.54 µM) | 2 | 21.4 | 19.7 | 22 | 23.4 | 20.6 | 1 | 2 ± 0.2 (≈ 4.27 µM) | –
2 | CCOC(=O)c1ccc(N=Nc2c(N)nn3c(-c4ccco4)cc(-c4ccccc4)nc23)cc1 [Compound 8b, Ethyl 4-((2-amino-7-(furan-2-yl)-5-phenylpyrazolo[1,5-a]pyrimidin-3-yl)diazenyl)benzoate] | 8 ± 0.2 (≈ 17.7 µM) | 1 | 4 ± 0.3 (≈ 8.84 µM) | 2 | 212 to 214 | 4 ± 0.1 (≈ 8.84 µM) | 2 | 4 ± 0.1 (≈ 8.84 µM) | 2 | 18.4 | 8 ± 0.2 (≈ 17.7 µM) | 2 | 18.7 | 16.5 | 19.5 | 20.1 | 17.3 | 1 | 2 ± 0.3 (≈ 4.42 µM) | –
3 | CCOC(=O)c1ccc(N=Nc2c(N)nn3c(N)c(C#N)c(-c4ccc(OC)cc4)nc23)cc1 [Compound 9b, Ethyl-4-((2,7-diamino-6-cyano-5-(4-methoxyphenyl)pyrazolo[1,5-a]pyrimidin-3-yl)diazenyl)benzoate] | 2 ± 0.3 (≈ 4.38 µM) | 0.5 | 1.5 ± 0.2 (≈ 3.29 µM) | 1 | 210 to 212 | 1.5 ± 0.2 (≈ 3.29 µM) | 0.5 | 2 ± 0.2 (≈ 4.38 µM) | 1 | 25.4 | 2 ± 0.1 (≈ 4.38 µM) | 1 | 25.7 | 23 | 25 | 26.5 | 24.3 | 0.5 | 1 ± 0.3 (≈ 2.19 µM) | –
4 | CCOC(=O)c1ccc(N=Nc2c(N)nn3c(N)c(C#N)c(-c4ccc(Cl)cc4)nc23)cc1 [Compound 9c, Ethyl-4-((2,7-diamino-5-(4-chlorophenyl)-6-cyanopyrazolo[1,5-a]pyrimidin-3-yl)diazenyl)benzoate] | 2 ± 0.1 (≈ 4.34 µM) | 1 | 2 ± 0.3 (≈ 4.34 µM) | 1 | 288 to 290 | 2 ± 0.2 (≈ 4.34 µM) | 1 | 4 ± 0.2 (≈ 8.68 µM) | 1 | 24.1 | 4 ± 0.4 (≈ 8.68 µM) | 1 | 23.5 | 23.9 | 24.2 | 25.2 | 23.1 | 1 | 1 ± 0.3 (≈ 2.17 µM) | –
5 | CCOC(=O)c1ccc(N=Nc2c(N)nn3c(O)c(C#N)c(-c4ccc(Cl)cc4)nc23)cc1 [Compound 10b, Ethyl 4-((2-amino-5-(4-chlorophenyl)-6-cyano-7-hydroxypyrazolo[1,5-a]pyrimidin-3-yl)diazenyl)benzoate] | 1.5 ± 0.2 (≈ 3.25 µM) | 0.5 | 1.5 ± 0.3 (≈ 3.25 µM) | 0.5 | 270 to 272 | 1.5 ± 0.1 (≈ 3.25 µM) | 0.5 | 2 ± 0.3 (≈ 4.33 µM) | 1 | 26.3 | 2 ± 0.2 (≈ 4.33 µM) | 1 | 26.3 | 24.2 | 26.8 | 27.1 | 25.1 | 0.5 | 0.75 ± 0.1 (≈ 1.62 µM) | –
6 | CC[C@H]1OC(=O)[C@H](C)[C@@H](O[C@H]2C[C@@](C)(OC)[C@@H](O)[C@H](C)O2)[C@H](C)[C@@H](O[C@@H]2O[C@H](C)C[C@H](N(C)C)[C@H]2O)[C@](C)(O)C[C@@H](C)C(=O)[C@H](C)[C@@H](O)[C@]1(C)O [E, Erythromycin, reference compound] | 64 ± 0.3 (≈ 87.2 µM) | 2 | 8 ± 0.2 (≈ 10.9 µM) | 2 | – | – | – | 32 ± 0.1 (≈ 43.6 µM) | 4 | – | – | – | – | – | – | – | – | – | – | MBC (Gram-positive isolates; read-out: MBC): 16 to 128 µg/mL (≈ 21.8 to 174 µM); MIC (Gram-positive isolates; read-out: MIC): 8 to 64 µg/mL (≈ 10.9 to 87.2 µM); zone of inhibition at 10000 µM (S. pyogenes DH-3467 [7]; DH3467, read-out: Diameter of Inhibition Zones (AZOI)): 10.5 mm; zone of inhibition at 10000 µM (S. aureus DH-432 [9]; DH432, read-out: Diameter of Inhibition Zones (AZOI)): 12 mm; zone of inhibition at 10000 µM (E. faecalis DH-5478 [11]; DH5478, read-out: Diameter of Inhibition Zones (AZOI)): 11 mm
